In ChEMBL document CHEMBL1150867, “New sesquiterpene hydroquinones from a Taiwanese marine sponge, Hippospongia metachromia” (J Nat Prod, 2001):
In brackets after ≈: the same amount, converted by molar mass.

Experiments:
COLO 205 = experiment: Cytotoxicity against human COLO205 cells by methylene blue dye assay
[1] = Cytotoxicity against human KB16 cells by methylene blue dye assay

Structure (SMILES)	IC50 (COLO 205) [µg/mL]	IC50 [1] [µg/mL]
C=C1[C@H](C)CCC[C@]1(C)CC[C@@]1(C)C=Cc2c(OC(C)=O)c(OC(C)=O)cc(OC)c2O1 [HIPPOCHROMIN A DIACETATE]	0.22	3.06
C=C1[C@H](C)CCC[C@]1(C)CC[C@@]1(C)C=Cc2c(OC(C)=O)c(OC)cc(OC(C)=O)c2O1 [HIPPOCHROMIN B DIACETATE]	> 10	> 10
C=C1[C@H](C)CCC[C@]1(C)CC/C(C)=C/CC1=C(OC)C(=O)C=C(OC)C1=O [METACHROMIN A MONOMETHYLATE]	> 10	> 10
C=C1[C@H](C)CCC[C@]1(C)CC/C(C)=C/CC1=C(O)C(=O)C=C(OC)C1=O [METACHROMIN A]	0.1 (≈ 0.279 µM)	1.8 (≈ 5.02 µM)
C=C1[C@H](C)CCC[C@]1(C)CC[C@@]1(C)C=Cc2c(OC(C)=O)c(OC)cc(OC)c2O1 [METACHROMIN B MONO METHYLATE]	0.53 (≈ 1.28 µM)	1.32 (≈ 3.18 µM)
C=C1[C@H](C)CCC[C@]1(C)CC[C@@]1(C)C=Cc2c(O)c(OC)cc(OC)c2O1 [METACHROMIN B]	0.26 (≈ 0.698 µM)	0.68 (≈ 1.83 µM)
C=C1[C@H](C)CCC[C@]1(C)CC[C@@]1(C)C=CC2=C(O1)C(=O)C=C(OC)C2=O [METACHROMIN E]	> 10	> 10
